Data on one compound can be found in publication PMC5776081, “The Stoichiometric Interaction of the Hsp90-Sgt1-Rar1 Complex by CD and SRCD Spectroscopy” (Frontiers in Molecular Biosciences, 2018).

This test addresses T1, Rar1 (Arabidopsis thaliana, UniProt Q9SE33).
T1 sequence (Q9SE33 1-226): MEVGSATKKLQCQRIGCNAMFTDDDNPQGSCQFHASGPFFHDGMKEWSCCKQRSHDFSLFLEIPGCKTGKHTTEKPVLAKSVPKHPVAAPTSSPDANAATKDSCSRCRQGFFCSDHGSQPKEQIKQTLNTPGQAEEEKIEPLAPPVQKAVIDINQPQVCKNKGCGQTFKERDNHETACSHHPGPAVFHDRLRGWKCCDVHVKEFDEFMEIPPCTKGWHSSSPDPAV
Nature of the test: near-UV CD titration, non-linear fit at […] nm. Particulars: 4 °C; 1:1 site; authors call it weak non-specific binding; apparent Kd.

Turning to `Nc1ncnc2c1ncn2[C@@H]1O[C@H](COP(=O)(O)OP(=O)(O)O)[C@@H](O)[C@H]1O` [ADP], the Kd was 2000 µM.
